Test results as given in patent US20240018132A1, “5-HYDROXY-1,4-NAPHTHALENEDIONE FOR USE IN THE TREATMENT OF CANCER” (GODAVARI BIOREFINERIES LIMITED, priority 2020, published 2024).

Key:
[1] = test system: Human lymphocytes; test: Lymphocyte assay (MTT on normal cells); type: cell-based; conditions: human peripheral blood lymphocytes, MTT procedure
Protocol: Human lymphocytes were isolated from the peripheral blood. A pure population of lymphocytes was obtained based on differential centrifugation, in which diluted defibrinated blood was layered on a solution of sodium diatrizoate and polysucrose (HiSep LSM 1077) and centrifuged at low speeds for 30 mins.
Procedure: The separation of lymphocytes from fresh defibrinated blood was performed by the procedure described below: • 1. Diluted defibrinated fresh blood was overlaid gradually on (HiSeP LSM1077) and centrifuged at low speed for 30 mins. • 2. The lymphocyte layer (the buffy coat) was carefully removed in a new collection tube. • 3. The buffy coat was given another wash, by the diluent buffer Dulbecco's phosphate buffered saline (D.P.B.S) • 4. The supernatant was discarded and the pellet was resuspended in D.P.B.S. • 5. The viability of cells was checked by Haemocytometer. • 6. Cells with purity and viability of more than 95% were taken for the experiment. • 7. Purified lymphocytes were diluted at a concentration of 0.7 million/ml with sterile D.P.B.S and MTT procedure was performed exactly as described earlier.

[2] = test system: PC3; test: In vitro sphere-forming assay (cancer stem cells), Prostosphere media; conditions: for viability at 0.0025 µM / viability at 0.025 µM / viability at 0.25 µM / viability at 2.5 µM / viability at 25 µM: Homo sapiens, PC-3, read-out: % Viability of spheres (PC3); for 3D sphere count of PC3: Prostosphere media, 2000 cells/well, n = 6 ± S.D
Procedure: In Vitro Sphere-forming Assay: Sphere assay measures the ability of cancer stem cells (CSCs) to form spheres in specially designed serum-free medium.
Prostosphere Media Preparation (For 100 mL):1 g methyl cellulose autoclaved with magnetic stirrer, 100 mL plain media (Prostate Epithelial Basal Medium) was added and dissolved, under magnetic stirring. After complete dissolution, Insulin-40 μL, B27-2 mL, EGF-80 μL, Penstrep-1 ml was added.
Procedure—The cells were trypsinised and made into single-cell suspension by passing through cell strainers (100 μl and 40 μl, respectively), The cells were diluted at a concentration of 2000 cells/100 μL and suspended in either Mammosphere (for breast cell lines) or Prostosphere (for prostate cell lines). 100 μL of this suspension was added into each well of 96-well suspension plates and incubated at 37° C., 5% CO2 for 24 hrs. Appropriate concentrations of the drugs (2 μL) were added into respective wells with 100 μL of stem cell culture medium. Plates were incubated at 37° C., 50 CO2 for 72 hrs. After incubation, 2.5 μL of the respective drug concentration and 50 μL of stem cell culture medium were added into each well and the plates were further incubated at 37° C., 50% CO2 for 72 hrs. 3 μL of the respective drug concentration was added with 50 μL of stem cell culture medium again after incubation and plates were reincubated for 72 hrs at 37° C., 50 CO2. Number of primary spheres formed for each concentration were counted. The spheres were converted to 0 viability of spheres compared to untreated (Growth Control with DMSO, GCD).

[3] = test system: PC3; test: In vitro antiproliferative assay (MTT assay), prostate cancer cell line; type: cell-based; conditions: Homo sapiens, PC-3, 48 h, MTT assay, prostate cancer PC3, 48 hrs drug incubation
In short: (§1)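 Compound exposure lasted 48 h at 37 °C in 5% CO2, following a 24 h attachment period; DMSO stocks were 0.1 M. Metabolic reduction of MTT (0.5 mg/ml, 4 h), solubilized in DMSO, gave viability, plotted as log % viability versus log drug concentration.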

[4] = test system: MDAMB231; test: In vitro sphere-forming assay (cancer stem cells), Mammosphere media; conditions: for viability at 0.0025 µM / viability at 0.025 µM / viability at 0.25 µM / viability at 2.5 µM / viability at 25 µM: Homo sapiens, MDA-MB-231, read-out: % Viability of spheres (MDAMB231); for 3D sphere count of MDAMB231: Mammosphere media, 2000 cells/well, n = 6 ± S.D
[5] = test system: MDAMB231; test: In vitro antiproliferative assay (MTT assay), breast cancer cell line; type: cell-based; conditions: Homo sapiens, MDA-MB-231, 48 h, MTT assay, breast cancer MDAMB231, 48 hrs drug incubation
In short: as §1

[6] = test system: MDAMB231; test: Soft agar colony-formation assay, breast cancer; type: cell-based; conditions: for anticancer activity in comparison with cisplatin, soft agar, breast cancer cell line: FIG. 51, MDAMB231; for IC50: Homo sapiens, MDA-MB-231, 168 h, Soft Agar Assay, 1 week, Alamar Blue
Protocol: (§2) The Soft Agar Colony-formation Assay is an anchorage-independent growth assay in soft agar, which is one of the most stringent assays for detecting malignant transformation of cells. For this assay, malignant cells are cultured with appropriate controls in soft agar medium for 1-2 weeks. Following this incubation period, formed colonies can either be analyzed morphologically using cell stain and quantifying the number of colonies formed.
(§3) Briefly, for Soft Agar Assay a mixture of 50 ul of 2× medium (taken appropriately as per cell line) and 50 ul of 1.2% Bacto Agar were plated on to each well of 96 well micro titer assay plate. 10 ul of cells (of specific plating efficiency pre standardized for respective cell line) were mixed with 20 ul of 2× medium and 30 ul of 0.8% of Bacto Agar and 1.6 ul of drug (of appropriate concentration) in a vial and transferred to the solidified pre layers of the assay plates. The cells were then allowed to grow and form colonies at 37° C. and 5% CO2 for 1 week. An intermittent feeding with 50 ul of appropriate 2× medium was performed after 3 days of experimental set up. 16 ul of Alamar Blue (1.5 mg/ml) was then added to all the wells to quantify the developed colonies. The plates were incubated for 24 hrs at 37° C. Absorbance was then measured at 630 nm. XY graph of log Percent viability was then plotted against log drug concentration.
(§4) Following plating efficiencies were standardized for Soft Agar Assay: […]

[7] = test system: PC3; test: Soft agar colony-formation assay, prostate cancer; type: cell-based; conditions: for anticancer activity in comparison with cisplatin, soft agar, prostate cancer cell line: FIG. 52, PC3; for IC50: Homo sapiens, PC-3, 168 h, Soft Agar Assay, 1 week, Alamar Blue
Protocol: as §2, §3, §4

Row | SMILES | viability at 0.0025 µM [2] [%] | viability at 0.025 µM [2] [%] | viability at 0.25 µM [2] [%] | viability at 2.5 µM [2] [%] | viability at 25 µM [2] [%] | 3D sphere count of PC3 ([2]; drug 0.0025 uM) | 3D sphere count of PC3 ([2]; drug 0.025 uM) | 3D sphere count of PC3 ([2]; drug 0.25 uM) | 3D sphere count of PC3 ([2]; drug 2.5 uM) | 3D sphere count of PC3 ([2]; drug 25 uM) | IC50 [3] [nM] | viability at 0.0025 µM [4] [%] | viability at 0.025 µM [4] [%] | viability at 0.25 µM [4] [%] | viability at 2.5 µM [4] [%] | viability at 25 µM [4] [%] | 3D sphere count of MDAMB231 ([4]; drug 0.0025 uM) | 3D sphere count of MDAMB231 ([4]; drug 0.025 uM) | 3D sphere count of MDAMB231 ([4]; drug 0.25 uM) | 3D sphere count of MDAMB231 ([4]; drug 2.5 uM) | further results
1 | O=C1C=C(N2CCOCC2)C(=O)c2c(OCCN3CCOCC3)cccc21 [Formula 73] | 86 | 68 | 50 | 36 | 23 | 69(±2) | 55(±3) | 40(±3) | 29(±3) | 19(±3) | 3050 | 87 | 70 | 50 | 35 | 19 | 62(±4) | 50(±3) | 36(±4) | 25(±3) | Activity on Lymphocytes (IC50) [1]: No activity; 3D sphere count of MDAMB231 ([4]; drug 25 uM): 14(±3); IC50 [5]: 2180 nM; anticancer activity in comparison with cisplatin, soft agar, breast cancer cell line [6]: higher anticancer activity in comparison with cisplatin; IC50 [6]: 3770 nM; anticancer activity in comparison with cisplatin, soft agar, prostate cancer cell line [7]: higher anticancer activity in comparison with cisplatin; IC50 [7]: 2680 nM
2 | COc1ccc(NC2=CC(=O)c3c(OCCCCN4CCOCC4)cccc3C2=O)cc1OC [Formula 41] | 85 | 72 | 54 | 46 | 27 | 74(±4) | 63(±3) | 47(±5) | 40(±4) | 24(±4) | 2730 | 86 | 70 | 52 | 34 | 19 | 66(±4) | 54(±4) | 40(±3) | 26(±3) | Activity on Lymphocytes (IC50) [1]: No activity; 3D sphere count of MDAMB231 ([4]; drug 25 uM): 15(±3); IC50 [5]: 3060 nM; anticancer activity in comparison with cisplatin, soft agar, breast cancer cell line [6]: higher anticancer activity in comparison with cisplatin; IC50 [6]: 1630 nM; anticancer activity in comparison with cisplatin, soft agar, prostate cancer cell line [7]: higher anticancer activity in comparison with cisplatin; IC50 [7]: 2670 nM
3 | CCN(CC)CCNC(=O)COc1cccc2c1C(=O)C=C(Nc1ccc(OC)cc1)C2=O [Formula 72] | 81 | 63 | 46 | 36 | 16 | 65(±3) | 51(±3) | 37(±3) | 29(±2) | 13(±3) | 743 | 84 | 67 | 48 | 33 | 19 | 60(±3) | 48(±3) | 34(±3) | 24(±2) | IC50 ([1]; Lymphocyte): 33000 nM; 3D sphere count of MDAMB231 ([4]; drug 25 uM): 14(±3); IC50 [5]: 1010 nM; anticancer activity in comparison with cisplatin, soft agar, breast cancer cell line [6]: higher anticancer activity in comparison with cisplatin; IC50 [6]: 3720 nM; anticancer activity in comparison with cisplatin, soft agar, prostate cancer cell line [7]: higher anticancer activity in comparison with cisplatin; IC50 [7]: 600 nM
